Measurements taken from patent EP0062019A1, “New phenyl-perhydroazepines” (priority 1981, dated 1982).

What was measured:
rabbit right atria = test: Chronotropic effect (heart frequency) in isolated spontaneously beating right atria; format: cell-based; conditions: Oryctolagus cuniculus; for EC50: iv, isolated right atria, rabbits pretreated with reserpine (5 mg/kg i.v.), Krebs-buffer pH 7.4, 32°C, read-out: HR EC50; for Emax: maximal effect compared with maximal effect of isoprenaline (intrinsic activity), rabbits pretreated with reserpine, read-out: HR ISA
Experimental: (§1) Pharmacological studies on cardiac effects on heart frequency and contractility in isolated right atria and papillary muscle from rabbit.
(§2) Rabbits with an average weight of 2.5 kg, pretreated with reserpine (5 mg/kg i.v.) about 16 hours before the experiment were used. The rabbits were killed by a blow and the hearts were rapidly removed. The right atria and a papillary muscle from the right ventricle were isolated and set up to contract isometrically in an organ bath. The bath contained 50 ml Krebs-buffer (pH 7.4) and the temperature was kept at 32°C.
(§3) The contractions were measured by means of a force displacement transducer (Grass Model FT03) coupled to a.Grass Model 7 Polygraph with a preampliphier (Grass Model 7PIF). ,
(§4) The spontaneously beating right atria was stretched to a resting tension high enough to measure the contractions and to trigger a tachograph for registration of the frequency. The papillary muscle was stretched to the length at which maximal tension was developed and was driven at a frequency of 1HZ by a current 20 per cent above threshold and with a duration of 5 msec.
(§5) After 60 min. equilibration, dose response curves to cumulative concentrations of isoprenaline were constructed for chronotropic effect, i.e. increase in frequency (atria) and positive inotropic effect, i.e. increase in contractility (papillary muscle). After wash-out similar curves were constructed for the compounds employed according to the invention. The positive inotropic agent dopamine was included for comparison.
(§6) In order to establish the maximal chronotropic and inotropic responses of the preparations, isoprenaline was added immediately after the maximal concentrations of the compounds. The maximal effects of the compounds compared with the maximal effect of isoprenaline are expressed as intrinsic activity (ISA).

[1] = system: rabbit right ventricle papillary muscle; test: Positive inotropic effect (contractility) in isolated, electrically driven papillary muscle; format: cell-based; conditions: for EC50 / Emax: Oryctolagus cuniculus; for EC50: iv, papillary muscle driven at 1HZ, rabbits pretreated with reserpine (5 mg/kg i.v.), Krebs-buffer pH 7.4, 32°C, read-out: Tmax EC50; for Emax: maximal effect compared with maximal effect of isoprenaline (intrinsic activity), rabbits pretreated with reserpine, read-out: Tmax ISA
Experimental: as §1, §2, §3, §4, §5, §6

| EC50 (rabbit right atria) [µM] | EC50 [1] [µM] | SMILES | Emax (rabbit right atria) [%] | Emax [1] [%] | EC50 for contractility relative to the EC50 for dopamine ([1]; fraction of the dopamine EC50) |
| --- | --- | --- | --- | --- | --- |
| 0.003 | 0.01 | CC(C)NCC(O)c1ccc(O)c(O)c1 (stereo not shown) [Isoprenaline] | 100 | 100 |  |
| 38 | 36 | NCCc1ccc(O)c(O)c1 [Dopamine] | 97 | 77 |  |

| SMILES | EC50 (rabbit right atria) [µM] | EC50 [1] [µM] | Emax (rabbit right atria) [%] | Emax [1] [%] | EC50 for contractility relative to the EC50 for dopamine ([1]; fraction of the dopamine EC50) |
| --- | --- | --- | --- | --- | --- |
| CCCN1CCCCC(c2cccc(O)c2)C1 (stereo not shown) [Example 1, 3-(3-hydroxyphenyl)N-n-propylperhydroazepine] | 0.35 | 11 | 31 | 37 | about one third |
